# Data as given in paper PMC9021288 (Nature Communications, 2022).
# Read-outs that look alike come from different tables or passages of the source.
# Test system: TA98, TA100, TA102, TA1535, TA1537
# Procedure: Safety studies were performed by commercial services using their standard protocols. […] Genotoxicity was investigated using the Ames test (Bacterial Reverse Mutation Assay) (Covance Laboratories Ltd, North Yorkshire, England). In vitro mammalian cell micronucleus screening assay was studied in human peripheral blood lymphocytes (BioReliance Corporation, Rockville, USA). Cardiotoxicity was determined against the hERG channel in an automated patch clamp assay using the Qpatch or against the hNaV 1.5, hKV 1.5 and hCaV 1.2 using a manual patch-clamp technique (Metrion Biosciences, Cambridge, UK). Cytotoxicity in human and rat primary hepatocytes was assessed using the CellTiter-Blue assay performed by commercial services (KaLy-Cell). The viability of HepG2 cells was monitored through the addition of 1 mM resazurin. Following 6 h incubation, the relative amount of reduced resazurin was detected in a fluorimeter and compared to the assay controls (vehicle: 0.1% DMSO and positive control: 10 µM puromycin).
smiles,measurement,setting,value
C[C@@H](CNC(=O)[C@H](O)C(C)(C)CO)NC(=O)c1cc(F)c(F)cc1F [MMV693183],Mean (Revertant Numbers Per Plate),"TA102, +S-9, 500 ug/plate",283
same,Fold Increase,"TA102, +S-9, 1600 ug/plate",1.1
same,Mean (Revertant Numbers Per Plate),"TA102, +S-9, 1600 ug/plate",257
same,Fold Increase,"TA102, +S-9, 5000 ug/plate",0.8
same,Mean (Revertant Numbers Per Plate),"TA102, +S-9, 5000 ug/plate",184.3
same,Fold Increase,"TA102, -S-9, 5 ug/plate",1
same,Mean (Revertant Numbers Per Plate),"TA102, -S-9, 5 ug/plate",245.7
same,Fold Increase,"TA102, -S-9, 16 ug/plate",1.1
same,Mean (Revertant Numbers Per Plate),"TA102, -S-9, 16 ug/plate",251.3
same,Fold Increase,"TA102, -S-9, 50 ug/plate",1.1
same,Mean (Revertant Numbers Per Plate),"TA102, -S-9, 50 ug/plate",256.3
same,Fold Increase,"TA102, -S-9, 160 ug/plate",1
same,Mean (Revertant Numbers Per Plate),"TA102, -S-9, 160 ug/plate",240
same,Fold Increase,"TA102, -S-9, 500 ug/plate",0.9
same,Mean (Revertant Numbers Per Plate),"TA102, -S-9, 500 ug/plate",202.7
same,Fold Increase,"TA102, -S-9, 1600 ug/plate",0.8
same,Mean (Revertant Numbers Per Plate),"TA102, -S-9, 1600 ug/plate",181.7
same,Fold Increase,"TA102, -S-9, 5000 ug/plate",0.1
same,Mean (Revertant Numbers Per Plate),"TA102, -S-9, 5000 ug/plate",26.7
same,Fold Increase,"TA1535, +S-9, 5 ug/plate",0.9
same,Mean (Revertant Numbers Per Plate),"TA1535, +S-9, 5 ug/plate",20.7
same,Fold Increase,"TA1535, +S-9, 16 ug/plate",0.8
same,Mean (Revertant Numbers Per Plate),"TA1535, +S-9, 16 ug/plate",19.3
same,Fold Increase,"TA1535, +S-9, 50 ug/plate",1
same,Mean (Revertant Numbers Per Plate),"TA1535, +S-9, 50 ug/plate",23.3
same,Fold Increase,"TA1535, +S-9, 160 ug/plate",1.1
same,Mean (Revertant Numbers Per Plate),"TA1535, +S-9, 160 ug/plate",25
same,Fold Increase,"TA1535, +S-9, 500 ug/plate",0.8
same,Mean (Revertant Numbers Per Plate),"TA1535, +S-9, 500 ug/plate",17.7
same,Fold Increase,"TA1535, +S-9, 1600 ug/plate",1
same,Mean (Revertant Numbers Per Plate),"TA1535, +S-9, 1600 ug/plate",24
same,Fold Increase,"TA1535, +S-9, 5000 ug/plate",1
same,Mean (Revertant Numbers Per Plate),"TA1535, +S-9, 5000 ug/plate",22.7
same,Fold Increase,"TA1535, -S-9, 5 ug/plate",1.4
same,Mean (Revertant Numbers Per Plate),"TA1535, -S-9, 5 ug/plate",35
same,Fold Increase,"TA1535, -S-9, 16 ug/plate",0.8
same,Mean (Revertant Numbers Per Plate),"TA1535, -S-9, 16 ug/plate",20.7
same,Fold Increase,"TA1535, -S-9, 50 ug/plate",0.9
same,Mean (Revertant Numbers Per Plate),"TA1535, -S-9, 50 ug/plate",22
same,Fold Increase,"TA1535, -S-9, 160 ug/plate",0.9
same,Mean (Revertant Numbers Per Plate),"TA1535, -S-9, 160 ug/plate",24
same,Fold Increase,"TA1535, -S-9, 500 ug/plate",1.2
same,Mean (Revertant Numbers Per Plate),"TA1535, -S-9, 500 ug/plate",29.3
same,Fold Increase,"TA1535, -S-9, 1600 ug/plate",1
same,Mean (Revertant Numbers Per Plate),"TA1535, -S-9, 1600 ug/plate",26
same,Fold Increase,"TA1535, -S-9, 5000 ug/plate",0.9
same,Mean (Revertant Numbers Per Plate),"TA1535, -S-9, 5000 ug/plate",22
same,difference in revertant numbers vs control,"TA1535, TA1537",< 3 fold
same,Fold Increase,"TA1537, +S-9, 5 ug/plate",1.4
same,Mean (Revertant Numbers Per Plate),"TA1537, +S-9, 5 ug/plate",10
same,Fold Increase,"TA1537, +S-9, 16 ug/plate",1.1
same,Mean (Revertant Numbers Per Plate),"TA1537, +S-9, 16 ug/plate",7.7
same,Fold Increase,"TA1537, +S-9, 50 ug/plate",1.9
same,Mean (Revertant Numbers Per Plate),"TA1537, +S-9, 50 ug/plate",13.3
same,Fold Increase,"TA1537, +S-9, 160 ug/plate",1
same,Mean (Revertant Numbers Per Plate),"TA1537, +S-9, 160 ug/plate",7.3
same,Fold Increase,"TA1537, +S-9, 500 ug/plate",1.6
same,Mean (Revertant Numbers Per Plate),"TA1537, +S-9, 500 ug/plate",11
same,Fold Increase,"TA1537, +S-9, 1600 ug/plate",1.4
same,Mean (Revertant Numbers Per Plate),"TA1537, +S-9, 1600 ug/plate",9.7
same,Fold Increase,"TA1537, +S-9, 5000 ug/plate",1
same,Mean (Revertant Numbers Per Plate),"TA1537, +S-9, 5000 ug/plate",7.3
same,Fold Increase,"TA1537, -S-9, 5 ug/plate",1.1
same,Mean (Revertant Numbers Per Plate),"TA1537, -S-9, 5 ug/plate",7.7
same,Fold Increase,"TA1537, -S-9, 16 ug/plate",0.9
same,Mean (Revertant Numbers Per Plate),"TA1537, -S-9, 16 ug/plate",6.3
same,Fold Increase,"TA1537, -S-9, 50 ug/plate",1
same,Mean (Revertant Numbers Per Plate),"TA1537, -S-9, 50 ug/plate",6.7
same,Fold Increase,"TA1537, -S-9, 160 ug/plate",0.8
same,Mean (Revertant Numbers Per Plate),"TA1537, -S-9, 160 ug/plate",5.3
same,Fold Increase,"TA1537, -S-9, 500 ug/plate",1
same,Mean (Revertant Numbers Per Plate),"TA1537, -S-9, 500 ug/plate",7.3
same,Fold Increase,"TA1537, -S-9, 1600 ug/plate",0.9
same,Mean (Revertant Numbers Per Plate),"TA1537, -S-9, 1600 ug/plate",6
same,Fold Increase,"TA1537, -S-9, 5000 ug/plate",0.6
same,Mean (Revertant Numbers Per Plate),"TA1537, -S-9, 5000 ug/plate",4
